Assays:
Assay type in all cases: cell-based
human CYP11B2 [1] = molecular target: T1, human CYP11B2 (Homo sapiens, UniProt P19099); experiment: V79-Human-CYP11B2 cell assay, modified protocol (600,000 cells/mL); details: 0.30 μl inhibitor
T1 construct: expressed in transfected cells; host or cells: V79 cells (clone V79-hCYP11B2-CLE9)
T1 sequence (P19099 25-503): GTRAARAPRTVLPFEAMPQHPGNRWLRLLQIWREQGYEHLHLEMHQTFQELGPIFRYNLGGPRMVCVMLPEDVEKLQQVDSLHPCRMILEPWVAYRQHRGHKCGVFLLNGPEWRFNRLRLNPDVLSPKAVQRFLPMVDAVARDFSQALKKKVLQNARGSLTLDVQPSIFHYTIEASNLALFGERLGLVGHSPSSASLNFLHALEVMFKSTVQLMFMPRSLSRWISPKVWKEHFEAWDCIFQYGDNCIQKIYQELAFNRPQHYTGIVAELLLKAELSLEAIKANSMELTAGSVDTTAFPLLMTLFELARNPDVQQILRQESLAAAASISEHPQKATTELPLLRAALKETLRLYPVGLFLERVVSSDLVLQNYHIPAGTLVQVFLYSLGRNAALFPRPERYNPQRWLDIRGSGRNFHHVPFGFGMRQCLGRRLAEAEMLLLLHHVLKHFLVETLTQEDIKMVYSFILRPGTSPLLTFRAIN
Method: (§1) V79 cell lines stably expressing the either the human CYP11B2 or the human CYP11B1 enzyme were generated using a standard transfection protocol. V79 cells were transfected with plasmids pTriEx3-Hygro-hCyp11B2 or pTriEx3-Hygro-hCyp11B1 using Lipofectamine2000 reagent. V79 cells that stably express the human CYP11B2 or human CYP11B1 enzyme were selected for and maintained in DMEM supplemented with 10% FBS and 400 μg/mL hygromycin for ˜2 weeks. Single cell clones were generated by infinite dilution in DMEM supplemented with 10% FBS and 400 μg/mL hygromycin until single colonies were obtained. […] For testing of inhibitors, cells were harvested at 80% confluency with 0.5% Trypsan-EDTA, washed once in PBS, and reconstituted in DMEM+0.1% BSA media at a cell concentration of 400,000 cells/mL. 25 μl of cells were added to a 384 well tissue culture treated plate and mixed with 0.25 μl of inhibitor or DMSO (1% final DMSO concentration) for 1 hour at 37° C., 5% CO2. After pre-incubation with inhibitor, the reaction was initiated by adding 5 μl of substrate (final concentration of 125 nM 11-deoxycorticosterone for the CYP11B2 assay or 250 nM 11-deoxycortisol for the CYP11B1 assay). The reaction was carried out for 3 hours at 37° C., 5% CO2 and was stopped by harvesting the supernatants. The amount of product in the supernatant (aldosterone for CYP11B2 assay and cortisol for the CYP11B1 assay) was measured using HTRF-based assay kit (Aldosterone HTRF-CisBio#64ALDPEB, Cortisol HTRF-CisBio #631DC002-CORT). IC50's for the inhibitor were determined by plotting the amount of product formed against the concentration of inhibitor using sigmoidal dose-response curve (variable slope) fit in GraphPad.
(§2) For the CYP11B2 assay, cells were reconstituted in DMEM+0.1% BSA media at a cell concentration of 600,000 cells/mL and for the CYP11B1 assay cells were reconstituted in DMEM+0.1% BSA media at a cell concentration of 280,000 cells/mL. 25 μl of cells were added to a 384 well tissue culture treated plate and mixed with 0.30 μl of inhibitor or DMSO (1% final DMSO concentration) for 1 hour at 37° C., 5% CO2.

human CYP11B1 [2] = molecular target: T2, human CYP11B1 (Homo sapiens, UniProt P15538); experiment: V79-Human-CYP11B1 cell assay, modified protocol (280,000 cells/mL); details: 0.30 μl inhibitor
T2 construct: expressed in transfected cells; host or cells: V79MZh11B1 cells
T2 sequence (P15538 25-503): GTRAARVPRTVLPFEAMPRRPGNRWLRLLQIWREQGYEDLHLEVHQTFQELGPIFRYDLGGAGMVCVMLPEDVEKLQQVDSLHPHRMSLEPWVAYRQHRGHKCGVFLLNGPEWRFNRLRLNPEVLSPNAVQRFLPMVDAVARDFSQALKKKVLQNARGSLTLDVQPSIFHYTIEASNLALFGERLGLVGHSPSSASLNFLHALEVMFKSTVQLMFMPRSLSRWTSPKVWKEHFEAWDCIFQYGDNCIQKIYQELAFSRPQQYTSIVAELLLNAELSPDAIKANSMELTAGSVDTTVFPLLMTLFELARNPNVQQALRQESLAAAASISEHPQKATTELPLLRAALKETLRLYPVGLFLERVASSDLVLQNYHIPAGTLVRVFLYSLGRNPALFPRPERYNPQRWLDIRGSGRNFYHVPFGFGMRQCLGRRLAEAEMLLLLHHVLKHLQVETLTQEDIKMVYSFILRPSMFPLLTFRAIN
Method: as §1, §2

human CYP11B1 [3] = molecular target: T2, human CYP11B1; experiment: V79MZh11B1 cell assay, [3H]-deoxycorticosterone, HPLC radioflow detection; details: V79MZh11B1 cells, 100 nM deoxycorticosterone, 25 min, read-out: V79 Human CYP11B1 IC50
Method: (§3) Compounds of the Examples 157-170 were assayed for V79-Human-CYP11B2 and V79-Human-CYP11B1 by modifying the protocol described in J. Steroid Biochem. Mol. Biol. 81; 173-179 (2002). V79MZh11B1 and V79MZh11B2 cells (8×10^5 cells/well) were grown on 24-well culture plates until confluence. Before testing, the DMEM culture medium was removed and 450 μl of fresh DMEM containing the inhibitor was added to each well. After a preincubation step of 60 min at 37° C., the reaction was started by the addition of 50 μl of DMEM in which the substrate deoxycorticosterone (containing 0.15 μCi of [1,2-3H]-deoxycorticosterone in ethanol, final test concentration 100 nM) was dissolved. Incubation times were 25 min for V79MZh11B1 and 50 min for V79MZh11B2 cells at 37° C., respectively. The enzyme reactions were stopped by extracting the supernatant with ethyl acetate. Samples were centrifuged (10.000 g, 5 min) and the solvent was pipetted into fresh cups. After evaporation of the solvent, the steroids were redissolved in 40 μl of […] and analyzed by HPLC. Detection and quantification of the steroids were performed using a radioflow detector. […] The inhibitor concentrations were all in the linear range of the dose-response-curves, so that the coefficients of correlation were at least 0.95 for each determination. The final IC50 value was estimated as the average of three or four independent IC50 values and a selectivity factor corresponding to the ratio between the IC50 values of CYP11B1 and CYP11B2 was calculated for each substance.

human CYP11B2 [4] = molecular target: T1, human CYP11B2; experiment: V79MZh11B2 cell assay, [3H]-deoxycorticosterone, HPLC radioflow detection; details: V79MZh11B2 cells, 100 nM deoxycorticosterone, 50 min, read-out: V79 Human CYP11B2 IC50
Method: as §3

IC50 (human CYP11B2 [1]) [nM] | IC50 (human CYP11B1 [2]) [nM] | IC50 (human CYP11B1 [3]) [nM] | IC50 (human CYP11B2 [4]) [nM] | Molecule
6 | 765 |  |  | 9-chloro-7-(5-chloro-4- methylpyridin-3-yl)-1- methyl-4,5-dihydro- [1,2,4]triazolo[4,3- a]quinoline [Example 93]
7 | 3140 |  |  | CCc1c(F)cncc1-c1cc(Cl)c2c(c1)CCc1nnc(C)n1-2 [Example 80, 9-chloro-7-(4-ethyl-5-fluoropyridin-3-yl)-1-methyl-4,5-dihydro[1,2,4]triazolo-[4,3-a]quinoline]
22 | > 30000 |  |  | Cc1nnc2n1-c1c(Cl)cc(-c3cnccc3C(F)(F)F)cc1CC2 [Example 83, 9-chloro-1-methyl-7-(4-(trifluoromethyl)pyridin-3-yl)-4,5-dihydro-[1,2,4] triazolo[4,3-a]quinoline]
48 | 6930 |  |  | Cc1nnc2n1-c1c(Cl)cc(-c3cnccc3C3CC3)cc1CC2 [Example 96, 9-chloro-7-(4-cyclopropylpyridin-3-yl)-1-methyl-4,5-dihydro-[1,2,4]triazolo[4,3-a]quinoline]
17 | > 10000 |  |  | Cc1nnc2n1-c1cc(Cl)c(-c3cncc4ccccc34)cc1CC2 [Example 113, 8-chloro-7-(isoquinolin-4-yl)-1-methyl-4,5-dihydro-[1,2,4]triazolo[4,3-a]quinoline]
32 | > 10000 |  |  | COc1c(C)cncc1-c1cc2c(cc1F)-n1c(C)nnc1CC2 [Example 122, 8-fluoro-7-(4-methoxy-5-methylpyridin-3-yl)-1-methyl-4,5-dihydro-[1,2,4]triazolo[4,3-a]quinoline]
 |  | 29500 | 89.7 | Cc1nnc2n1-c1c(F)cc(-c3cncc(F)c3)cc1CC2 [Example 157, 9-fluoro-7-(5-fluoro-pyridin-3-yl)-1-methyl-4,5-dihydro-[1,2,4]triazolo[4,3-a]quinoline]
 |  | 1810 | 20.3 | COc1cncc(-c2cc(F)c3c(c2)CCc2nnc(C)n2-3)c1 [Example 158, 9-fluoro-7-(5-methoxy-pyridin-3-yl)-1-methyl-4,5-dihydro-[1,2,4]triazolo[4,3-a] quinoline]
 |  | 3910 | 28.3 | Cc1nnc2n1-c1c(F)cc(-c3cncc(C(C)O)c3)cc1CC2 (stereo not shown) [Example 159, 1-[5-(9-fluoro-1-methyl-4,5-dihydro-[1,2,4]triazolo[4,3-a]quinolin-7-yl)-pyridin-3-yl]-ethanol]
 |  | 6970 | 87.6 | CC(=O)c1cncc(-c2cc(F)c3c(c2)CCc2nnc(C)n2-3)c1 [Example 160, 1-[5-(9-fluoro-1-methyl-4,5-dihydro-[1,2,4]triazolo[4,3-a]quinolin-7-yl)-pyridin-3-yl]-ethanone]
 |  | 3570 | 57.2 | Cc1nnc2n1-c1c(F)cc(-c3cncc(C(F)(F)F)c3)cc1CC2 [Example 161, 9-fluoro-1-methyl-7-(5-trifluoromethyl-pyridin-3-yl)-4,5-dihydro-[1,2,4]triazolo [4,3-a]quinoline]
 |  | 428 | 7.1 | Cc1nnc2n1-c1c(F)cc(-c3cncc(-c4ccccc4)c3)cc1CC2 [Example 162, 9-fluoro-1-methyl-7-(5-phenyl-pyridin-3-yl)-4,5-dihydro-[1,2,4]triazolo[4,3-a]quinoline]
 |  | 1770 | 4.2 | Cc1ccncc1-c1cc(F)c2c(c1)CCc1nnc(C)n1-2 [Example 163, 9-fluoro-1-methyl-7-(4-methyl-pyridin-3-yl)-4,5-dihydro-[1,2,4]triazolo[4,3-a]quinoline]
 |  | 110 | 2.2 | Cc1nnc2n1-c1c(F)cc(-c3cncc4ccccc34)cc1CC2 [Example 164, 9-fluoro-7-isoquinolin-4-yl-1-methyl-4,5-dihydro-[1,2,4]triazolo[4,3-a]quinoline]
 |  | 17000 | 62.5 | Cc1nnc2n1-c1c(F)cc(-c3cccnc3)cc1CC2 [Example 165, 9-fluoro-1-methyl-7-pyridin-3-yl-4,5-dihydro-[1,2,4]triazolo[4,3-a]quinoline]
 |  | 16100 | 172 | Fc1cc(-c2cccnc2)cc2c1-n1cnnc1CC2 [Example 166, 9-fluoro-7-pyridin-3-yl-4,5-dihydro-[1,2,4]triazolo[4,3-a]quinoline]
 |  | 12600 | 131 | Cc1nnc2n1-c1cc(F)c(-c3cccnc3)cc1CC2 [Example 167, 8-fluoro-1-methyl-7-pyridin-3-yl-4,5-dihydro-[1,2,4]triazolo[4,3-a]quinoline]
 |  | 7900 | 244 | Fc1cc2c(cc1-c1cccnc1)CCc1nncn1-2 [Example 168, 8-fluoro-7-pyridin-3-yl-4,5-dihydro-[1,2,4]triazolo[4,3-a]quinoline]
 |  | 3070 | 11 | CCc1c(F)cncc1-c1cc(F)c2c(c1)CCc1nnc(C)n1-2 [Example 169, 7-(4-ethyl-5-fluoropyridin-3-yl)-9-fluoro-1-methyl-4,5-dihydro-[1,2,4]triazolo[4,3-a]quinoline]
 |  | 17300 | 41 | CCc1c(F)cncc1-c1cc2c(c(F)c1F)-n1c(C)nnc1CC2 [Example 170, 7-(4-ethyl-5-fluoropyridin-3-yl)-8,9-difluoro-1-methyl-4,5-dihydro-[1,2,4]triazolo[4,3-a]quinoline]

— patent publication US9073929B2, “Aldosterone synthase inhibitors” (ElexoPharm GmbH, priority 2011, dated 2015)
